Results from patent US11911387B2, “Vasoprotective and cardioprotective antidiabetic therapy” (Boehringer Ingelheim International GmbH, priority 2010, dated 2024).
“Also recorded” adds a separate entry of the source. Marks after values point to notes of the source that are not given here.

Tests used:
[1] = tested on: isolated aortic ring segments; assay: Direct vasodilatory effects, isometric tension recording in isolated aortic ring segments; set-up: species or system rats; settings: cumulative concentrations 1 nM to 32 or 100 μM; versus DMSO
Procedure: FIGS. 9A and 9B show direct vasodilatory effects of gliptins. […] The data are mean±SEM of 12 (FIG. 9A) or 4 (FIG. 9B) aortic rings from 10 rats in total: p<0.05 vs. DMSO (solvent control); ^#p<0.05 vs. sita-/vildagliptin, and ^§, p<0.05 vs. saxa-/alogliptin.
Direct vasodilatory effects of gliptins are measured by the isometric tension technique in isolated aortic ring segments. […] In addition reactive oxygen and nitrogen species (RONS) formation is determined in isolated cardiac mitochondria and LPS or PDBu-triggered oxidative burst in whole blood.

[2] = tested on: T2DM patients on stable metformin; settings: for adjusted mean HbA1c change from baseline: PP population, linagliptin 5 mg/day, glimepiride mean dose 3 mg/day, added to metformin
[3] = Pharmacokinetics of BI 1356, multiple oral doses once daily for 12 days in patients with type 2 diabetes; settings: for feT, SS: steady state (Day 12); for feT, SS / fe0-24: gMean
[4] = tested on: patients with type 2 diabetes
[5] = tested on: isolated human leukocytes (PMN); assay: Oxidative burst (NADPH oxidase activation) in isolated human leukocytes (PMN); assay type: cell-based
Procedure: In FIG. 4, within each setting of inhibition of oxidative burst, the first bar from left refers to activation by LPS and the second bar refers to activation by Zymosan A.
In FIG. 6, within each setting of LPS stimulation, the first bar from left refers to w/o gliptin, the second bar refers to 1 μM Bl 1356, the third bar refers to 10 μM Bl 1356 and the fourth bar refers to 100 μM Bl 1356.

[6] = tested on: nitrate tolerant rats; assay: Rat model of nitroglycerin-induced nitrate tolerance, oral linagliptin; assay type: in vivo
Procedure: (§1) Direct vasodilatory effects of gliptins are measured by the isometric tension technique in isolated aortic ring segments. […]. In addition reactive oxygen and nitrogen species (RONS) formation is determined in isolated cardiac mitochondria and LPS or PDBu-triggered oxidative burst in whole blood. […].

[7] = tested on: 5/6N rats; assay: Rat model of chronic renal insufficiency (5/6 nephrectomy), GLP-1 levels and cardiac mRNA; assay type: in vivo; settings: for active GLP-1 AUC(0-72 h) / active GLP-1 maximum plasma concentration (Cmax): linagliptin 3.3 mg/kg oral for 4 days
From the text: At the end of the study, heart tissue is harvested for mRNA analyses.

[8] = tested on: adhesion of human neutrophils to endothelial cells (EA.hy cells); assay: Adhesion of LPS-stimulated human neutrophils to cultured endothelial cells; assay type: cell-based; settings: in the presence of LPS
[9] = tested on: hydrogen peroxide/peroxidase system; assay: Direct antioxidant effect: hydrogen peroxide/peroxidase mediated 1-electron-oxidation; assay type: biochemical
[10] = tested on: NOD mice; assay: Onset of diabetes and beta-cell mass in non-obese-diabetic (NOD) mice, 60 days; assay type: in vivo
From the text: Though reduced pancreatic T-cell migration and altered cytokine production is considered important players for the onset of insulinitis the exact mechanism and effects on the pancreatic cell pool is still incompletely understood.
Bi-weekly plasma samples are obtained to determine onset of diabetes (BG>11 mmol/l).

[11] = tested on: rats fed a high-fat diet (diet induced obesity); assay: Diet induced obesity rats, body weight and MRS fat analysis; settings: rat, in vivo
[12] = tested on: diabetic eNOS ko mice; assay: Diabetic nephropathy in STZ-diabetic eNOS ko mice, 4 weeks treatment; assay type: in vivo; settings: STZ treated animals, linagliptin 3 mg/kg, telmisartan 1 mg/kg p.o.
From the text: Endothelial damage is characteristic for type 2 diabetes and contributes to the development of end stage kidney disease. Further, vascular endothelial NO synthase (eNOS) activity is altered in T2D and genetic abnormalities in the respected gene (NOS3) are associated with the development of advanced diabetic nephropathy (DN) in patients with type 1 and type 2 diabetes. The use of low dose STZ to induce T2D in this genetic phenotype (eNOS−/−) has been recently reported (Brosius et al, JASN 2009) to be a valid experimental model for DN. Eight week old eNOS −/− mice are rendered diabetic with intraperitoneal injections of streptozotocin (100 mg/kg per day for two consecutive days). Development of diabetes (defined by blood glucose>250 mg/dl) is verified one week after streptozotocin injection. No insulin is given because that could prevent the development of diabetic nephropathy. Mice are treated for 4 weeks with:
1) Non-diabetic eNOS ko control mice, placebo (natrosol) (n=14)
2) sham treated diabetic eNOS ko mice, placebo (natrosol) (n=17)
3) Telmisartan (p.o. 1 mg/kg) treated diabetic eNOS ko mice (n=17)
Renal function (s-creatinine, albuminuria) and blood glucose level are detected.

[13] = tested on: peroxynitrite (authentic and Sin-1 derived); assay: Direct antioxidant effect: peroxynitrite formation/-mediated nitration; assay type: biochemical
[14] = tested on: diabetic eNOS knockout C57BL/6J mice; assay: ARB-resistant diabetic nephropathy in diabetic eNOS knockout C57BL/6J mice, 12 weeks; assay type: in vivo; settings: for albuminuria (urinary albumin excretion per 24 h): telmisartan 1 mg/kg, linagliptin 3 mg/kg; for glomerulosclerosis in the kidney, histological score: compared with diabetic controls, p<0.05
From the text: Fourteen mice are used as non-diabetic controls. After 12 weeks, urine and blood are obtained and blood pressure measured.

[15] = tested on: patients with type 2 diabetes; assay: Postprandial glucose excursions, safety and tolerability in patients with type 2 diabetes, multiple oral doses of BI 1356
[16] = tested on: septic rats (LPS); assay: LPS-induced septic shock in Wistar rats, linagliptin cotherapy; assay type: in vivo
Procedure: as §1

[17] = tested on: ischemia/reperfusion (I/R) rats; assay: Myocardial ischemia/reperfusion in Wistar rats, linagliptin from 30 days before I/R; assay type: in vivo
[18] = tested on: 2K1C-rats; assay: Two-kidney-one clip reno-vascular hypertension (2K1C) rat model, systolic blood pressure; assay type: in vivo; settings: 3 months; telmisartan 10 mg/kg, linagliptin 89 ppm in chow
From the text: We hypothesize that glucose/energy supply is particularly important in the failing heart that is characterized by cardiac hypertrophy. Inadequate energy supply is considered as one of the most important steps from compensated to decompensated left ventricular hypertrophy resulting in heart failure. A classical model of hypertension induced left ventricular hypertrophy that results on the long run in left ventricular failure and pathological remodeling is the two-kidney-one clip reno-vascular hypertension (Goldblatt) model (2K1C model).
[…]. Non-invasive, systolic blood pressure is measured in all groups to the time points (1. before treatment; 2. after 1 weeks 3. after 4 weeks; 4. after 6 weeks 5. after 12 weeks; and 6. after 6 weeks of treatment with the respective compounds.

[19] = tested on: superoxide formation from xanthine oxidase; assay: Direct antioxidant effect: superoxide formation from xanthine oxidase

Cn1c(=O)cc(N2CCC[C@@H](N)C2)n(Cc2ccccc2C#N)c1=O [alogliptin]
direct vasodilatory effect (induction of vasodilation), ranking [1]: directly followed by alogliptin and vildagliptin

CCC1=C(C)CN(C(=O)NCCc2ccc(S(=O)(=O)NC(=O)N[C@H]3CC[C@H](C)CC3)cc2)C1=O [glimepiride, reference compound]
adjusted mean HbA1c change from baseline ([2]; 2 years): −0.5%
patients with investigator-defined, drug-related hypoglycemia ([2]; human, in vivo, 2 years): 36.1%
body weight change ([2]; in vivo): +1.3 kg

CC#CCn1c(N2CCC[C@@H](N)C2)nc2c1c(=O)n(Cc1nc(C)c3ccccc3n1)c(=O)n2C [linagliptin]
feT, SS ([3]; 1 mg once daily oral): 3.34%
fe0-24 ([3]; 2.5 mg once daily oral): 0.139%
feT, SS ([3]; 2.5 mg once daily oral): 3.06%
fe0-24 ([3]; 5 mg once daily oral): 0.453%
feT, SS ([3]; 5 mg once daily oral): 6.27%
fe0-24 ([3]; 10 mg once daily oral): 0.919%
feT, SS ([3]; 10 mg once daily oral): 3.22%
mean accumulation ratio RA,AUC ([3]; doses above 1 mg once daily): ≤ 1.4
route of excretion ([3]; human, in vivo): primarily excreted unchanged via the bile
excreted via the kidney ([3]; therapeutic oral dose levels): < 7 % of the administered oral dose
Primary CV endpoint, incidence rate/1000 pt-yr ([4]; in vivo): 5.3 /1000 pt-yr
All adjudicated CV events, Hazard ratio (95% CI) ([4]; linagliptin vs comparator): 0.55 (0.33, 0.94)*
FDA-custom MACE, Hazard ratio (95% CI) ([4]; linagliptin vs comparator): 0.34 (0.15, 0.75)*
Hospitalization for UAP, Hazard ratio (95% CI) ([4]; linagliptin vs comparator): 0.24 (0.02, 2.34)
Primary CV endpoint, Hazard ratio (Cox proportional model) (95% CI) ([4]; linagliptin vs comparator): 0.34 (0.16, 0.70)*
Transient ischemic attack, Hazard ratio (95% CI) ([4]; linagliptin vs comparator): 0.17 (0.02, 1.53)
Primary CV endpoint, % ([4]; n = 3319): 0.3%
All adjudicated CV events, incidence rate/1000 pt-yr ([4]; secondary endpoint): 12.6 /1000 pt-yr
FDA-custom MACE, incidence rate/1000 pt-yr ([4]; secondary endpoint): 4.3 /1000 pt-yr
Hospitalization for UAP, incidence rate/1000 pt-yr ([4]; tertiary endpoint): 0.5 /1000 pt-yr
Non-fatal MI, incidence rate/1000 pt-yr ([4]; tertiary endpoint): 2.9 /1000 pt-yr
Non-fatal stroke, incidence rate/1000 pt-yr ([4]; tertiary endpoint): 1.0 /1000 pt-yr
Transient ischemic attack, incidence rate/1000 pt-yr ([4]; tertiary endpoint): 0.5 /1000 pt-yr
PMN derived RONS signal, L-012 enhanced chemiluminescence ([5]; LPS 0.5, 5 and 50 μg/ml): suppresses the signal concentration-dependently
inhibition of oxidative burst ([5]; NADPH oxidase activation by LPS and zymosan A, compared with other gliptins): best inhibition
suppression of LPS or zymosan A-triggered oxidative burst, luminol/peroxidase enhanced chemiluminescence ([5]; versus nebivolol): as efficient as nebivolol
suppression of LPS or zymosan A-triggered oxidative burst, luminol/peroxidase enhanced chemiluminescence ([5]; versus other gliptins): much more efficient
cardiac mitochondrial ROS formation and whole blood LPS/zymosan A-triggered oxidative burst ([6]; nitrate-tolerant rats): improved; also recorded: minor improvement
nitrate tolerance ([6]; nitroglycerin treated rats): not altered
endothelial dysfunction (endothelium dependent relaxation) ([6]; nitroglycerin treated rats, linagliptin 3-10 mg/kg/d by diet 7 d): significantly improved
body weight of the animals ([6]; rat, in vivo): Neither nitroglycerin nor linagliptin treatment has effects
blood glucose levels ([6]; slightly increased in the nitroglycerin group): normalized
direct vasodilatory effect (induction of vasodilation), ranking [1]: most potent compound
active GLP-1 AUC(0-72 h) ([7]; 5/6N animals): 201 pg·h/mL
active GLP-1 maximum plasma concentration (Cmax) ([7]; 5/6N animals): 6.36 ± 2.58 pg/mL
cardiac mRNA levels of TGF-β, TIMP-1, collagens 1α1 and 3α1 and BNP ([7]; increased in 5/6N versus sham, all p<0.05): reduced or even normalized
increase of the AUC of GLP-1 ([7]; rat model of renal failure): approximately twofold
active GLP-1 AUC(0-72 h) ([7]; sham animals): 114 pg·h/mL
active GLP-1 maximum plasma concentration (Cmax) ([7]; sham animals): 3.91 ± 1.86 pg/mL
adjusted mean HbA1c change from baseline ([2]; 2 years): −0.4%
patients with investigator-defined, drug-related hypoglycemia ([2]; human, in vivo, 2 years): 7.5%
relative risk for the combined CV endpoint (RR) ([2]; human, in vivo, 2 years): 0.50
body weight change ([2]; in vivo): -1.4 kg
body weight, adjusted mean difference ([2]; in vivo): -2.7 kg
mean between-group difference in HbA1c change ([2]; linagliptin vs glimepiride, p=0.0001 for noninferiority): 0.17%
leukocyte adhesion to endothelial cells [8]: suppresses leukocyte adhesion
interference with 1-electron-oxidations by the hydrogen peroxide/peroxidase system [9]: most potent compound
incidence of diabetes at the end of the study period ([10]; diet corresponding to 3-10 mg/kg p.o., 60 days, p=0.021): 9 out of 30
active plasma GLP-1 at termination ([10]; mouse, in vivo): higher
beta cell mass ([10]; p<0.01): 0.48 ± 0.09 mg
steatosis, inflammation and fibrosis in the liver, histological scoring [11]: reduction
blood sugar versus placebo [12]: No significant differences
suppression in response to peroxynitrite formation/-mediated nitration [13]: Minor (but significant) suppression
plasma osteopontin levels ([14]; 12 weeks): significantly lower
albuminuria (urinary albumin excretion per 24 h) ([14]; 12 weeks): 120.8±37.7 μg/24 h
glomerulosclerosis in the kidney, histological score [14]: 2.1+/−0.0
decrease in 2 h postprandial blood glucose excursions ([15]; already on Day 1, doses ≥2.5 mg): 80%
safety and tolerability ([15]; people with type 2 diabetes): placebo-like safety and tolerability
endothelial dysfunction (endothelium-dependent relaxation) ([16]; LPS treated rats): significantly improved
vascular function (Ach-, GTN-, and diethylamine NONOate-dependent relaxation) ([16]; impaired by LPS): almost normalized
mitochondrial and whole blood (LPS, PDBu-stimulated) RONS production ([16]; increased by LPS): improved
vascular oxidative stress (DHE) and markers of vascular inflammation (VCAM-1, Cox-2, NOS-2) ([16]; increased by LPS): significantly improved
increase of plasma GLP-1 levels ([16]; rat, in vivo): ~10 fold
proportion of infarcted tissue relative to the total area at risk ([17]; 3 mg/kg once daily from 30 days before I/R, p<0.001): −21%
absolute infarction size ([17]; 3 mg/kg once daily, p<0.05): −18%
isovolumetric contractility index dP/dTmin ([17]; after 60 days): −4957±73 mmHg/s
glucagon-like peptide-1 (GLP-1) levels increased ([17]; p<0.0001): 18 fold

N[C@@H](CC(=O)N1CCn2c(nnc2C(F)(F)F)C1)Cc1cc(F)c(F)cc1F [sitagliptin]
direct vasodilatory effect (induction of vasodilation), ranking [1]: not more efficient in the induction of vasodilation than the solvent alone control

CCCc1nc2c(C)cc(-c3nc4ccccc4n3C)cc2n1Cc1ccc(-c2ccccc2C(=O)O)cc1 [telmisartan]
systolic blood pressure (RR systolic) [18]: always significant versus vehicle treated animals
blood sugar versus placebo [12]: No significant differences
albuminuria, significance compared with diabetic controls ([14]; 12 weeks): not statistically significant
blood pressure ([14]; 12 weeks, mean±SEM): 111.2±2.3 mmHg
blood pressure reduction vs diabetic controls ([14]; 12 weeks, p=0.071): 5.9 mmHg
albuminuria (urinary albumin excretion per 24 h) ([14]; 12 weeks): 97.8±26.4 μg/24 h
glomerulosclerosis in the kidney, histological score [14]: not significantly different
plasma neutrophil gelatinase-associated lipocalin (NGAL) levels ([14]; compared with untreated diabetic mice): significantly increased

N#C[C@@H]1CCCN1C(=O)CNC12CC3CC(CC(O)(C3)C1)C2 [vildagliptin]
direct vasodilatory effect (induction of vasodilation), ranking [1]: directly followed by alogliptin and vildagliptin
suppression of superoxide formation [19]: Minor (but significant) suppression
